In the test the target is T1, delF508-CFTR (Homo sapiens, UniProt P13569, DEL508-508).
T1 construct: expressed in transfected cells
In words: Measurement of delF508-CFTR-HRP surface expression in CFBE41o- cells. The class given is cell-based. The settings on record: for Emax: CFBE41o-, efficacy relative to reference compound 3-(6-(1-(2,2-difluorobenzo[d][1,3]dioxol-5-yl)cyclopropane-1-carboxamido)-3-methylpyridin-2-yl)benzoic acid, read-out: DelF508-CFTR-HRP Amax %; for EC50: HRP-tagged delF508-CFTR surface expression, CFBE41o- cells, 24 h with compound, 10-point curve, highest concentration 10 μM. Summed up: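 CFBE41o- cells stably expressing delF508-CFTR with HRP in the fourth extracellular loop, induced 48 h with 500 ng/mL doxycycline, then exposed to compound (10-point, 3-fold, top 10 μM, ≤0.5% DMSO) for 24 h at 37° C. Surface HRP read by luminescence with cell-impermeant substrate; EC50 by logistic fit, triplicates, efficacy relative to reference corrector.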

T1 sequence (P13569 with tags, fused parts or gaps DEL508-508): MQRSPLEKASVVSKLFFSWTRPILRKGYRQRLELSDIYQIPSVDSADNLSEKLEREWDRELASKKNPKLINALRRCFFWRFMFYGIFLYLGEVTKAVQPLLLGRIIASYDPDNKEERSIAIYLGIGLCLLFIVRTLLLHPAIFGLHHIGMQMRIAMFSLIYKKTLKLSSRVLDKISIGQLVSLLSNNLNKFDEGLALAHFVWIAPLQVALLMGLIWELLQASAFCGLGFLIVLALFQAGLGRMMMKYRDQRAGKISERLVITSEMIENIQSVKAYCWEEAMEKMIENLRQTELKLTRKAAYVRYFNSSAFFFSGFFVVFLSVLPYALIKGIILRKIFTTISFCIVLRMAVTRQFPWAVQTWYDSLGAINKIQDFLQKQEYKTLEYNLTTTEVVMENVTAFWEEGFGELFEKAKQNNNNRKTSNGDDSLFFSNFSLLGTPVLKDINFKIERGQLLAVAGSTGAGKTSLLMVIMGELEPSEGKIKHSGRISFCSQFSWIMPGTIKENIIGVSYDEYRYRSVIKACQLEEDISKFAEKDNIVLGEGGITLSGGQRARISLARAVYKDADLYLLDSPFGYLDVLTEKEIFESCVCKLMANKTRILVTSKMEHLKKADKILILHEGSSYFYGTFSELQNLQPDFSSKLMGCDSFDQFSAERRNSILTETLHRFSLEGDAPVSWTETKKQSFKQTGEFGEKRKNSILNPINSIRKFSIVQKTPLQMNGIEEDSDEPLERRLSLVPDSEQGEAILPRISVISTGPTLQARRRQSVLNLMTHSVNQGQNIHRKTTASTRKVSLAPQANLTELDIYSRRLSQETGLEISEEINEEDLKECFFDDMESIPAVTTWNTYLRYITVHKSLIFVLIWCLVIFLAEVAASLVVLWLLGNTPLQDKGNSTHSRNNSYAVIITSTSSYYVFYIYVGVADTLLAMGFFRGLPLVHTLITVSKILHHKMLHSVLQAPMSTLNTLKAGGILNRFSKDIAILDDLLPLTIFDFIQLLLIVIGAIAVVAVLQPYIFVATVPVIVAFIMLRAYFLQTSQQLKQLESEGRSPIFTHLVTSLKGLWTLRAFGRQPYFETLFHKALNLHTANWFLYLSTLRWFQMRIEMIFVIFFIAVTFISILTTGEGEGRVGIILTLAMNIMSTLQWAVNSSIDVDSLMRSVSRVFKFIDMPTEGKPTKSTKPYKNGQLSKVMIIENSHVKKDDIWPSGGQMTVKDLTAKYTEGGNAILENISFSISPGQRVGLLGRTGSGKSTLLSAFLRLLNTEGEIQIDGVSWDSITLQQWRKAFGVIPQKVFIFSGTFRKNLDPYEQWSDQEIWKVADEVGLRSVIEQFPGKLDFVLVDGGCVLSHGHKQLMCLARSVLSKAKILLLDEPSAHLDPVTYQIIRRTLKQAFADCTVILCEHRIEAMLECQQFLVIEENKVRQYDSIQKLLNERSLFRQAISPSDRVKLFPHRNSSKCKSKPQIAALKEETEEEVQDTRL

As for `O=C(O)CCN1CCCCCc2ccccc2-c2cccc(n2)NS(=O)(=O)c2cccc1n2` [Compound 93, 3-(4,4-dioxido-4-thia-3,6-diaza-2,5(2,6)-dipyridina-1(1,2)-benzenacycloundecaphane-6-yl)propanoic acid], the Emax worked out at 179% and the EC50 – broadly, the concentration that produces a half-maximal response – turned out to be 2650 nM.
Turning to `O=C(O)CCCN1CCCCCCCc2ccccc2-c2nc(ccc2C(F)(F)F)NS(=O)(=O)c2cccc1n2` [Compound 65, 4-(4,4-dioxido-2^3-(trifluoromethyl)-4-thia-3,6-diaza-2,5(2,6)-dipyridina-1(1,2)-benzenacyclotridecaphane-6-yl)butanoic acid], the EC50 stood at 280 nM.
As to `O=C(O)C1(CN2CCCCCc3ccccc3-c3nc(ccc3C(F)(F)F)NS(=O)(=O)c3cccc2n3)CC1` [Compound 94, 1-((4,4-dioxido-2^3-(trifluoromethyl)-4-thia-3,6-diaza-2,5(2,6)-dipyridina-1(1,2)-benzenacycloundecaphane-6-yl)methyl)cyclopropane-1-carboxylic acid], the Emax came out at 737% and the concentration giving a half-maximal response (EC50) came to 566 nM.
`O=S1(=O)Nc2ccc(C(F)(F)F)c(n2)-c2ccccc2CCCOCCNc2cccc1n2` [Compound 119, 2^3-(trifluoromethyl)-9-oxa-4-thia-3,6-diaza-2,5(2,6)-dipyridina-1(1,2)-benzenacyclododecaphane 4,4-dioxide]: the Emax is 356% and the concentration giving a half-maximal response (EC50) was 866 nM.
For the compound `O=C(O)CCCCN1CCCCCCCc2ccccc2-c2nc(ccc2C(F)(F)F)NS(=O)(=O)c2cccc1n2` [Compound 101, 5-(4,4-dioxido-2^3-(trifluoromethyl)-4-thia-3,6-diaza-2,5(2,6)-dipyridina-1(1,2)-benzenacyclotridecaphane-6-yl)pentanoic acid], the EC50 is 84 nM.
As to `O=C(O)CCN1CCCCOc2ccc(F)cc2-c2nc(ccc2C(F)(F)F)NS(=O)(=O)c2cccc1n2` [Compound 81, 3-(1^5-fluoro-4,4-dioxido-2^3-(trifluoromethyl)-11-oxa-4-thia-3,6-diaza-2,5(2,6)-dipyridina-1(1,2)-benzenacycloundecaphane-6-yl)propanoic acid], the Emax turned out to be 527% and the EC50 worked out at 2330 nM.
On the same counts, the results for `O=S1(=O)Nc2ccc(C(F)(F)F)c(n2)-c2ccccc2COCCCNc2cccc1n2` [Compound 11, 2^3-(trifluoromethyl)-10-oxa-4-thia-3,6-diaza-2,5(2,6)-dipyridina-1(1,2)-benzenacycloundecaphane 4,4-dioxide] are 442% and 1360 nM.
On the same counts, the results for `O=S1(=O)Nc2ccc(C(F)(F)F)c(n2)-c2ccccc2OCCCCNc2cccc1n2` [Compound 1, 2^3-(trifluoromethyl)-11-oxa-4-thia-3,6-diaza-2,5(2,6)-dipyridina-1(1,2)-benzenacycloundecaphane 4,4-dioxide] are 372% and 978 nM.
Take `CCOC(=O)CN1CCCCOc2ccccc2-c2nc(ccc2C(F)(F)F)NS(=O)(=O)c2cccc1n2` [Compound 3, ethyl 2-(4,4-dioxido-2^3-(trifluoromethyl)-11-oxa-4-thia-3,6-diaza-2,5(2,6)-dipyridina-1(1,2)-benzenacycloundecaphane-6-yl)acetate]: the Emax stood at 361% and the half-maximal effective concentration (EC50) was 335 nM.
Turning to `O=C(O)CCCN1CCOCCCc2ccccc2-c2nc(ccc2C(F)(F)F)NS(=O)(=O)c2cccc1n2` [Compound 88, 4-(4,4-dioxido-2^3-(trifluoromethyl)-9-oxa-4-thia-3,6-diaza-2,5(2,6)-dipyridina-1(1,2)-benzenacyclododecaphane-6-yl)butanoic acid], the concentration giving a half-maximal response (EC50) stood at 2070 nM.
As for `O=S1(=O)Nc2ccc(C(F)(F)F)c(n2)-c2cccnc2OCCCCCOc2cccc1n2` [Compound 103, 2^3-(trifluoromethyl)-6,12-dioxa-4-thia-3-aza-1(3,2),2,5(2,6)-tripyridinacyclododecaphane 4,4-dioxide], the Emax is 197% and the concentration for a half-maximal effect (EC50) stood at 1380 nM.

Source of the values: patent publication US20220071971A1, “MACROCYCLIC COMPOUNDS AND THEIR USE IN THE TREATMENT OF DISEASE” (NOVARTIS AG, priority 2018, published 2022).
